From US20040106545A1, “Compounds and methods for modulating cell adhesion” (priority 1996, published 2004)
Entries after “also recorded” stand apart in the source; their conditions may differ.

How the values were obtained:
[1] = system: 3T3 cells not expressing N-cadherin, N-CAM, or L1 (control cells); experiment: Neurite outgrowth on control 3T3 monolayers (Example 2); format: cell-based, mouse; conditions: 500 μg/ml
Experimental: Neurons were cultured on monolayers of 3T3 cells transfected with cDNA encoding N-cadherin essentially as described by Doherty and Walsh, Curr. Op. Neurobiol. 4:49-55, 1994; Williams et al., Neuron 13:583-594, 1994; Hall et al., Cell Adhesion and Commun. 3:441-450, 1996; Doherty and Walsh, Mol. Cell. Neurosci. 8:99-111, 1994; Safell et al., Neuron 18:231-242, 1997. Briefly, monolayers of control 3T3 fibroblasts and 3T3 fibroblasts that express N-cadherin were established by overnight culture of 80,000 cells in individual wells of an 8-chamber well tissue culture slide. 3000 cerebellar neurons isolated from post-natal day 3 mouse brains were cultured for 18 hours on the various monolayers in control media (SATO/2%FCS), or media supplemented with various concentrations of the cyclic peptide N—Ac-CHAVC-NH2 (SEQ ID NO:10) or a control peptide without the HAV sequence (N—Ac-CHGVC-NH2; SEQ ID NO:11). The cultures were then fixed and stained for GAP43, which specifically binds to the neurons and their neurites. The length of the longest neurite on each GAP43 positive neuron was then measured by computer assisted morphometry.

Rat = experiment: Acute toxicity study in rat; format: in vivo; conditions: intravenously, 100 mg/kg
control 3T3 cells = experiment: Neurite outgrowth of rat cerebellar neurons on control 3T3 monolayers (Example 15); format: cell-based; conditions: increasing concentrations (FIG. 23)
Experimental: (§1) Cell culture and neurite outgrowth assays. Co-cultures of cerebellar neurons on monolayers of control 3T3 cells and monolayers of transfected 3T3 cells that express physiological levels of chick N-cadherin or human L1 were established as previously described (Williams et al., Neuron 13:583-594, 1994). In brief, 80,000 3T3 cells (control and transfected) were plated into individual chambers of an eight-chamber tissue culture slide coated with polylysine and fibronectin and cultured in DMEM/10% FCS. After 24 hours, when confluent monolayers had formed, the medium was removed and 3000 cerebellar neurons isolated from post-natal day 2-3 rats were plated into each well in SATO media (Doherty et al., Nature 343:464-466, 1990) supplemented with 2% FCS. All of the test peptides were added immediately before the neurons as a 2× stock prepared in SATO/2% FCS. The co-cultures were maintained for 16-18 hours, at which time they were fixed and immunostained for GAP-43 which is present only in the neurons and delineates the neuritic processes. The mean length of the longest neurite per cell was measured for 150-200 neurons sampled in replicate cultures as previously described (Williams et al., Neuron 13:583-594, 1994). […] Dose-response curves were evaluated and the EC50 values determined.

SKOV3 tumors = experiment: Human ovarian (SKOV3) tumors grown in nude mice: tumor volume and histology; format: in vivo, mouse
Experimental: SKOV3 cells (ATCC) were grown to 70% confluence in Minimum Essential Medium (Life Technologies, Grand Island, N.Y.) supplemented with 10% Fetal Bovine Serum (Wisent, St. Bruno, Quebec) in a humidified atmosphere containing 5% CO2. Cells were then dissociated with 0.02% PBS/EDTA. Total cell count and viable cell number was determined by trypan blue stain and a hemacytometer.
Approximately 1×10^7 cells were resuspended in 400 μl saline and injected in 6-week-old CD-1 nude mice (female, Charles River) subcutaneously. After 20 days of continuous tumor growth, tumor size was about 100 mm^3. The tumor-bearing animals were then injected intraperitoneally every day for 4 consecutive days with 20 mg/kg of the representative peptide modulating agent N—Ac-CHAVC-NH2 (SEQ ID NO:10) and saline, for experimental and control respectively. Mice were sacrificed by cervical dislocation 4 days after final injection.
Tumor tissue was dissected and fixed in PBS with 4% paraformaldehyde for 48 hours. Specimens were then dehydrated in a series of alcohol incubations, and embedded in paraffin wax. Tissues were sectioned, rehydrated and stained with hematoxylin/eosin for morphological purposes. Representative sections obtained from treated and untreated mice are shown in FIGS. 28B and 28A, respectively.
Within similar experiments, tumor-bearing nude mice as described above were injected intraperitoneally with 2 mg/kg of the representative peptide modulating agent N—Ac-CHAVC-NH2 (SEQ ID NO:10) and saline, for experimental and control respectively. Injections were performed every day for 4 days. Mice were sacrificed 24 hours after the last injection. Tumor tissue was fixed, sectioned and stained as described above. Representative sections obtained from treated and untreated mice are shown in FIGS. 30A and 30B, respectively.
In a similar study, the effect of N—Ac-CHAVC-NH2 (SEQ ID NO:10) on ovarian tumor growth was evaluated at 2 mg/kg and 0.2 mg/kg. Mice were treated as described above with saline alone, 2 mg/kg peptide or 0.2 mg/kg peptide once per day for 5 days. The percent change in tumor volume (relative to the tumor size at day 1) was determined.

[2] = system: MKL-F cells, breast cancer tumors; experiment: Breast cancer tumors grown in nude mice; format: in vivo, mouse
Experimental: Breast cancer tumors were also grown in nude mice, as described above. After implanting tumor cells into the mammary fat pad, mice were injected once daily for four days with either the representative modulating agent N—Ac-CHAVC-NH2 (SEQ ID NO:10) or saline as a control. Mice were sacrificed 24 hours after the last injection, and tumors were photographed. […] These tumors are well vascularized.
MKL-F cells were injected into mammary fat pad, as described above, and the tumors were grown for 21 days before injection. Mice were then injected once daily for four days with either 20 mg/kg of the representative modulating agent N—Ac-CHAVC-NH2 (SEQ ID NO:10) or saline as a control. Mice were sacrificed 21 days after the last injection. Tumor volume was measured at day 18 following injection of cells, day 22 (following the first injection of modulating agent), and days 29, 32, 36, 39 and 42.

[3] = system: Madin Darby canine kidney (MDCK) cells; format: cell-based; conditions: 18 h
L1 [4] = target: T1, L1 (Homo sapiens, UniProt P32004); experiment: Neurite outgrowth of rat cerebellar neurons on L1 expressing 3T3 monolayers (Example 15); format: cell-based; design: expressed in transfected cells; rat cerebellar neurons on top; conditions: 125 μg/ml; read-out: % Inhibition of L1 Response
Experimental: as §1
Other cell adhesion molecules, such as L1, can stimulate neurite outgrowth, and this response shares the same downstream signaling steps as the N-cadherin response. […] As previously reported, L1 stimulated neurite outgrowth from cerebellar neurons.

L1 [5] = target: T1, L1; experiment: Neurite outgrowth on L1 expressing 3T3 monolayers (Example 2); format: cell-based, mouse; design: expressed in transfected cells; host or cells: 3T3 fibroblasts (monolayer); mouse post-natal day 3 cerebellar neurons on top; conditions: 500 μg/mL

T1 sequence (P32004 20-1257): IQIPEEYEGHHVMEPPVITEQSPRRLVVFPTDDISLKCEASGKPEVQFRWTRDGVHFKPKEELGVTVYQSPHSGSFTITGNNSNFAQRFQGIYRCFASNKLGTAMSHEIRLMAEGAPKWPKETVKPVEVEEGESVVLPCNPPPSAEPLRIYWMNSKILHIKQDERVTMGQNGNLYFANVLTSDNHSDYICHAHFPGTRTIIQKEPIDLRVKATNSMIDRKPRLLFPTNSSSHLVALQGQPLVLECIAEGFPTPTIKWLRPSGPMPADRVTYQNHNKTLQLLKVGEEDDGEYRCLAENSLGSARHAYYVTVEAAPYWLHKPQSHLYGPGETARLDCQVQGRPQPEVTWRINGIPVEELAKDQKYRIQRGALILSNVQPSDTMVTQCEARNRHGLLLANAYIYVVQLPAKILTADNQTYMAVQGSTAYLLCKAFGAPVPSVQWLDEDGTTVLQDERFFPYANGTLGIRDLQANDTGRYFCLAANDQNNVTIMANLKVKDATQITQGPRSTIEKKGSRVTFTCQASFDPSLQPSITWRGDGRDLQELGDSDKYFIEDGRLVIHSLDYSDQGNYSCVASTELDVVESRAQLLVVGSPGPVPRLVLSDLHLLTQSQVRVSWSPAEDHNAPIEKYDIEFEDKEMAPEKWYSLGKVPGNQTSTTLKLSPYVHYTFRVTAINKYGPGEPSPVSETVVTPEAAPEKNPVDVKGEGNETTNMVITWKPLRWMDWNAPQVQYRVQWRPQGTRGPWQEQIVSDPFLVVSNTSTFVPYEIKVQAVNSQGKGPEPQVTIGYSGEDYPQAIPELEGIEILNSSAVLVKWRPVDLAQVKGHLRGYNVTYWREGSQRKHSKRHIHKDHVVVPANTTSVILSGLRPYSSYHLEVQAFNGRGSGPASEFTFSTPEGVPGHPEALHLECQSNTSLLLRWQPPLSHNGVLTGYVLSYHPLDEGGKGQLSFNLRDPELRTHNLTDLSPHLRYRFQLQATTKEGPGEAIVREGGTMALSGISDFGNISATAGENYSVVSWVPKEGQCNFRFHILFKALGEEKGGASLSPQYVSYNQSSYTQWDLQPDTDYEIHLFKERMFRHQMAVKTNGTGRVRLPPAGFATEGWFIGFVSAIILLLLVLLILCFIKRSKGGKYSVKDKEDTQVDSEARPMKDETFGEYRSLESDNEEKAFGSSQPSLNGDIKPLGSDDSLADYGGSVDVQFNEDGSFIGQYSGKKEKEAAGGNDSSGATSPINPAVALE

In the case of `CC(=O)N[C@H]1CSSC[C@@H](C(N)=O)NC(=O)[C@H](C(C)C)NC(=O)[C@H](C)NC(=O)[C@H](Cc2c[nH]cn2)NC1=O` [N—Ac—CHAVC—NH2, N-Ac-Cys-His-Ala-Val-Cys-NH2], the “inhibition of neurite outgrowth on control 3T3 cells” value [1] is reported as “did not inhibit neurite outgrowth”, the “gross or histopathological findings” value (Rat) is reported as “no gross or histopathological findings related to the treatment” and the “effect on neurite extension over control 3T3 cells” value (control 3T3 cells) is reported as “had no effect on the basal growth over 3T3 cells; also recorded: no significant effect on neurite extension over control 3T3 cells”. For the same molecule, the “change in tumor volume” value (SKOV3 tumors; 0.2 mg/kg once per day for 5 days) was “grew at a slower rate than tumors treated with saline”, the “effect on tumor blood vessels and tumor growth” value (SKOV3 tumors; 2 mg/kg intraperitoneally every day for 4 days, Von Willebrand Factor VIII stain) was “capable of damaging tumor blood vessels and stopping tumor growth in vivo” and the “change in tumor volume” value (SKOV3 tumors; 2 mg/kg once per day for 5 days) was “slight reduction in volume over the five day study”. The “tumor growth / tumor size” value (SKOV3 tumors; 20 mg/kg intraperitoneally every day for 4 consecutive days) was “prevents detectable tumor growth and results in a substantial decrease in tumor size”, the breast tumor growth ([2]; once daily for four days) was “slow tumor growth” and the “appearance of breast tumors (blood vessels)” value ([2]; once daily for four days (20 mg/kg), 24 hours after last injection) was “extensive rupturing of blood vessels”. For the same molecule, the EC50 [3] was 270 µM, the inhibition at 125 µg/mL (L1 [4]) was 41.6 ± 8.6% and the “inhibition of neurite outgrowth on 3T3 cells expressing L1” value (L1 [5]) was “did not inhibit neurite outgrowth”.
